How the values were obtained:
[1] = DPPH free radical scavenging test; settings: 517 nm, 30 min incubation
Method: Four synthetic compounds were tested for the efficiency of scavenging free radicals matched with trolox and gallic acid as a basic. From the compounds, 1 mg/ml concentration solutions in methanol were prepared, and the solutions were used to prepare concentrations of 5, 10, 20, 30, 40, and 50 μg/ml. The DPPH reagent (0.002% w/v) was dissolved in methanol before mixed with working concentrations in ratios of 1:1:1 (compound:DPPH:methanol). The methanol solution was adopted as a blank. All the solutions were incubated for 30 min at room temperature in the dark. When the antioxidant compound reacts with DPPH, which can donate hydrogen, it is reduced the color changes from deep violet to light. Absorbance values were estimated by using a UV–Vis spectrophotometer at a wavelength of 517 nm. The DPPH inhibition percentage of all tested compound, trolox and gallic acid, was estimated according to the formula: Inhibitionpercentage=Ab-As/Ab×100%, where Ab is blank absorbance, and AS is sample absorbance. The IC50 values for tested synthetic compounds, trolox and gallic acid were determined from the curves.

[2] = biological target: T1, porcine pancreatic amylase (Sus scrofa, UniProt P00690); experiment: α-Amylase inhibitory activity; format: biochemical; settings: mean ± SD, triplicates; read-out: α-Amylase enzyme IC50 (converted)
T1 construct: purchased Frutarom (UK)
T1 sequence (P00690 16-511): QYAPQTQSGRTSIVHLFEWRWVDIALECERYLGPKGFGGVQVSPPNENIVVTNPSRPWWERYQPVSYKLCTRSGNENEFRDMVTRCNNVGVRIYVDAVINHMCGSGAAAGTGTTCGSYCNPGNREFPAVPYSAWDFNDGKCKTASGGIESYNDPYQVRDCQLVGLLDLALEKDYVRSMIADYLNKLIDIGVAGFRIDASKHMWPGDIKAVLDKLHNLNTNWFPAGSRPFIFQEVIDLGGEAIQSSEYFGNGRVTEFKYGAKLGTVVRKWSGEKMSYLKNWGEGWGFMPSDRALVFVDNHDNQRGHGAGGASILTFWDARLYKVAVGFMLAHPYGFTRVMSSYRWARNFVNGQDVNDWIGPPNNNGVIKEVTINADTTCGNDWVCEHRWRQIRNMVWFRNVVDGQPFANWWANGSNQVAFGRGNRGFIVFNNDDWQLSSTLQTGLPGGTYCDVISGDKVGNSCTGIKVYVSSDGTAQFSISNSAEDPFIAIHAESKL
Method: The α-amylase inhibitory evaluation was established following the Wickramaratne et al. procedure[13] with minor changes. Working solutions with concentrations of 10, 50, 100, 500, and 1000 µg/ml were produced from our synthesized compounds, diluting them with a buffer of Na2HPO4/NaH2PO4 (0.02 M), NaCl (0.006 M) at pH 6.9 and then brined up to 10 ml using a 10 ml volumetric flask. […] As percent inhibition, the enzyme inhibitory potential was expressed, and the following equation was utilized to estimate the IC50 dose for the samples[14]. %a-AmylaseInhibiton=Abs100%control-AbsSample/Abs100%Control×100

[3] = biological target: T2, porcine pancreatic lipase enzyme (Sus scrofa, UniProt P00591); experiment: Porcine pancreatic lipase inhibition (p-nitrophenyl butyrate hydrolysis); format: biochemical; settings: read-out: Anti-lipase activity IC50 (converted)
T2 construct: purchased Frutarom (UK)
T2 sequence (P00591 1-450): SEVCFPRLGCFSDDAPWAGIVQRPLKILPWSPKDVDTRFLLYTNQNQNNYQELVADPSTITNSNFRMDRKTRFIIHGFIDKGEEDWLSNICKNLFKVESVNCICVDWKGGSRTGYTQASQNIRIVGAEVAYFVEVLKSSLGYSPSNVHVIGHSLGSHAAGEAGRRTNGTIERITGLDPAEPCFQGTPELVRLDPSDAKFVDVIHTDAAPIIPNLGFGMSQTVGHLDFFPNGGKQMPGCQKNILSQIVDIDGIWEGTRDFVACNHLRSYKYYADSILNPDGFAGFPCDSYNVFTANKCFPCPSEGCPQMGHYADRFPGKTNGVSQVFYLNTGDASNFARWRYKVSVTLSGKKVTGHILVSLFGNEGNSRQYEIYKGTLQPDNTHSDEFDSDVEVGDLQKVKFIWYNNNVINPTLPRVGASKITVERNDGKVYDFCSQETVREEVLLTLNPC
Method: The lipase inhibitory activity was conducted by following the method in the references with minor modifications[19]–[21]. The prepared synthesized compounds solutions (1 mg/ml) were diluted with 10% DMSO to produce five different dilutions (0.2, 0.4, 0.6, 0.8, and 1 mg/ml). […] A Tris–HCl buffer was used to zero UV–Vis spectrophotometer at 405 nm.
The hydrolysis of p-nitrophenyl butyrate to p-nitrophenyl was used to measure the influence of the synthetic acid esters on the porcine pancreatic lipase enzyme.

α-glucosidase = experiment: α-Glucosidase (α-glycosidase) inhibitory activity, PNPG substrate; format: biochemical; settings: mean ± SD, triplicates
Method: The inhibition of α-glucosidase activity by the synthesized molecules was measured. The α-glucosidase inhibitory activity is expressed as percentages of inhibition, which was calculated using the following formula: Inhibitoryeffect%=Ab-As/Ab∗100% where Ab and As are the absorbance values of the blank (containing PBS, α-glucosidase, and PNPG, the colored substrate of glucosidase) and the tested samples containing PBS, samples, α-glycosidase, and PNPG, respectively. The α-glucosidase activity was measured using 10 and 20 mg/ml of the synthesized molecules. Each concentration was recorded by using […] PNPG. The inhibitory pattern was assessed using a Lineweaver–Burk plot. The constant Ki of enzyme inhibitory effect was determined.

[4] = β-Carotene linoleic acid antioxidant test; settings: concentration 0.2 mg/ml; for Absorbance in β-carotene linoleic acid test: after 75 min, 470 nm; for Antioxidant efficiency in β-carotene linoleic acid test: compared with water (control) and α-tocopherol
Method: The activity of the synthesized compounds was assessed via performing a modified assay of Gazzani and Miller[17]. The method was based on the coupled oxidation of β-carotene and linoleic acid emulsion. The bleaching mechanism of β-carotene is produced from the hydro-peroxides created from linoleic acid[18]. During the oxidation process, the characteristic orange color of β-carotene and the chromophore will be lost. The presence of antioxidants can hinder the extent of the β-carotene bleaching. Briefly, 1 mg of β-carotene was dissolved in 2 ml of chloroform, 20 mg of linoleic acid, and 200 mg of Tween 20. A rotary evaporator entirely vaporized chloroform at a temperature of less than 30 °C under reduced pressure. Then 200 ml of distilled water saturated with oxygen was added to the flask, which was shaken vigorously for 30 min. A sample (5 ml) of the prepared emulsion was transferred to a series of tubes containing 0.1 ml of the synthesized compounds or tocopherol (2 mg/ml).
The control sample was prepared in the same way but without added antioxidants. Each sample type was prepared in triplicate. The samples were inserted in a water bath at 50 °C for 2 h. The absorbance of the samples was measured using a spectrophotometer at a wavelength of 470 nm, immediately after the preparation of the samples, and at 15-min intervals until the end (t = 120 min) of the experiment.

Compound | Antioxidant activity IC50, DPPH test [1] | IC50 [2] | IC50 [3] | α-Glycosidase enzyme IC50 (α-glucosidase) | Absorbance in β-carotene linoleic acid test [4] | Antioxidant efficiency in β-carotene linoleic acid test [4]
O=C(OCCSc1ccccc1)c1ccccc1 [Compound 2a] | 47.01 ± 1.07 µg/mL | 13.8 µM | 418 µM | 10.09 ± 0.70 µg/mL | 1.04 | higher antioxidant efficiency
O=C(OCCSc1ccccc1)c1ccccc1O [Compound 2b] |  | 45.3 µM |  | 89.95 ± 0.49 µg/mL | 0.84 | higher antioxidant efficiency
O=C(OCCSc1ccccc1)c1ccc(O)cc1 [Compound 2d] |  | 48.9 µM | 434 µM | 114.17 ± 1.04 µg/mL |  | 

The next lines start with results.

Antioxidant activity IC50, DPPH test [1] | IC50 [2] | IC50 [3] | α-Glycosidase enzyme IC50 (α-glucosidase) | Compound | Absorbance in β-carotene linoleic acid test [4] | Antioxidant efficiency in β-carotene linoleic acid test [4]
 | 71.3 µM | 1240 µM | 78.1 ± 0.76 µg/mL | O=C(OCCSc1ccccc1)c1cccc(O)c1 [Compound 2c] |  | 
31.72 ± 1.22 µg/mL |  |  |  | O=C(O)c1cc(O)c(O)c(O)c1 [Gallic acid, gallic acid] |  | 
4.28 ± 0.47 µg/mL |  |  |  | Cc1c(C)c2c(c(C)c1O)CC[C@@](C)(C(=O)O)O2 [Trolox, (S)-(–)-6 hydroxy-2,5,7,8-tetramethychroman-2-carboxylic acid] |  | 
